What is called pIC50 is the negative decadic logarithm of the IC50, by convention in mol/L.

pIC50: −log10 of the molar value. Where a name gives a salt, the structure may show the parent alone. A value given as a limit tells only on which side of the number the result lay.

Among the data in US10676468B2, “N-(3-heteroarylaryl)-4-arylarylcarboxamides and analogs as hedgehog pathway inhibitors and use thereof” (IMPACT Therapeutics, Inc., priority 2012, dated 2020) are IC50 values, retold here.

Type in all cases: cell-based, mouse
The subject of assay [1] is Hedgehog Signaling Pathway. Briefly: SAG-induced differentiation of C3H10T1/2 cells into osteoblastic cells, intracellular alkaline phosphatase activity. The conditions noted are these: 1 μM SAG, 5 days, alkaline phosphatase activity (OD405), read-out: IC50 values of compounds that inhibit Hh pathway. An outline of the steps:
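Mouse C3H10T1/2 cells were induced with SAG and exposed to compound (10 μM to 1 nM) for 5 days at 37 °C. Cells were lysed in 0.2% Triton, and alkaline phosphatase activity was read as OD405 over 30 min at 37 °C in pH 9.8 substrate buffer. IC50 came from a non-linear fit of background-subtracted OD405 against log concentration.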

The test system of assay [2] is Hedgehog Signaling Pathway. Briefly: SHH-induced differentiation of C3H10T1/2 cells into osteoblastic cells, intracellular alkaline phosphatase activity. The conditions noted are these: 10 nM SHH-N, 5 days, alkaline phosphatase activity (OD405), read-out: IC50 values of compounds that inhibit Hh pathway. Summed up: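 Mouse C3H10T1/2 cells were induced with 10 nM SHH-N alongside test compound (10 μM–10 nM) for 5 days at 37 °C. Cells were lysed in 0.2% Triton, and alkaline phosphatase activity was read at OD405 over 30 min at 37 °C with the background reading subtracted. IC50 came from a nonlinear fit against log concentration.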

For assay [3], the system named is Hedgehog Signaling Pathway. Briefly: Gli-Luc reporter gene cell assay in C3H10T1/2/Gli-Luc cells stimulated with Shh. Particulars: 30 nM Shh, luciferase activity (RLU), read-out: IC50 values of compounds that inhibit Hh pathway. An outline of the steps:
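C3H10T1/2 cells stably carrying Gli-responsive luciferase were seeded overnight, then treated 24 h at 37 °C with compound (7-point dilution series, DMSO control) plus Shh (30 nM in added medium). Lysate luciferase RLU fitted against log concentration to derive IC50.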
(In a reporter assay the amount or activity of a reporter protein is the signal.)

Setting [4] is: Mus musculus, C3H 10T1/2, 120 h.

Take `C[C@@H]1CN(c2ccc(C(=O)Nc3ccc(Cl)c(-c4ncc(C5CC5)[nH]4)c3)c(C(F)(F)F)c2)C[C@H](C)N1C` [Example 178, N-(3-(5-cyclopropyl-1H-imidazol-2-yl)-4-chlorophenyl)-2-(trifluoro-methyl)-4-((3S,5R)-3,4,5-trimethylpiperazin-1-yl)benzamide]: the pIC50 is 7.59 in assay [1] (setting [4]); 9.52 in assay [2] (setting [4]); 9.00 in assay [3] (Mus musculus, C3H 10T1/2, 24 h).

In the case of `Cc1c(C(=O)Nc2ccc(Cl)c(-c3ncc(C4CC4)[nH]3)c2)ccc(N2C[C@@H](C)N(C)[C@@H](C)C2)c1F` [Example 179, N-(3-(5-cyclopropyl-1H-imidazol-2-yl)-4-chlorophenyl)-2-methyl-3-fluoro-4-((3S,5R)-3,4,5-trimethylpiperazin-1-yl)benzamide], the pIC50 in assay [1] (setting [4]) was 7.68; in assay [2] (setting [4]), 9.41; in assay [3] (Mus musculus, C3H 10T1/2, 24 h), 9.37.

`C[C@@H]1CN(c2ccc(C(=O)Nc3ccc(Cl)c(-c4ncc(C5CCC5)[nH]4)c3)c(Cl)c2)C[C@H](C)N1C` [Example 180, N-(3-(5-cyclobutyl-1H-imidazol-2-yl)-4-chlorophenyl)-2-chloro-4-((3S,5R)-3,4,5-trimethylpiperazin-1-yl)benzamide]: the pIC50 in assay [1] (setting [4]) was 7.33; in assay [2] (setting [4]), 8.00; in assay [3] (Mus musculus, C3H 10T1/2, 24 h), 8.62.

For the compound `Cc1cc(N2C[C@@H](C)N(C)[C@@H](C)C2)ccc1C(=O)Nc1ccc(Cl)c(-c2ncc(C3CCC3)[nH]2)c1` [Example 181, N-(3-(5-cyclobutyl-1H-imidazol-2-yl)-4-chlorophenyl)-2-methyl-4-((3S,5R)-3,4,5-trimethylpiperazin-1-yl)benzamide], the pIC50 in assay [1] (setting [4]) was 7.15; in assay [2] (setting [4]), 7.72; in assay [3] (Mus musculus, C3H 10T1/2, 24 h), 8.49.

On to `C[C@@H]1CN(c2ccc(C(=O)Nc3ccc(Cl)c(-c4ncc(C5CCCC5)[nH]4)c3)c(Cl)c2)C[C@H](C)N1C` [Example 182, N-(3-(5-cyclopentyl-1H-imidazol-2-yl)-4-chlorophenyl)-2-chloro-4-((3S,5R)-3,4,5-trimethylpiperazin-1-yl)benzamide], for which the pIC50 is 7.00 in assay [1] (setting [4]); 8.05 in assay [2] (setting [4]); 8.35 in assay [3] (Mus musculus, C3H 10T1/2, 24 h).

As for `Cc1cc(N2C[C@@H](C)N(C)[C@@H](C)C2)ccc1C(=O)Nc1ccc(Cl)c(-c2ncc(C3CCCC3)[nH]2)c1` [Example 183, N-(3-(5-cyclopentyl-1H-imidazol-2-yl)-4-chlorophenyl)-2-methyl-4-((3S,5R)-3,4,5-trimethylpiperazin-1-yl)benzamide], the negative logarithm of the IC50 (pIC50) was 7.05 in assay [1] (setting [4]); 7.66 in assay [2] (setting [4]); 8.18 in assay [3] (Mus musculus, C3H 10T1/2, 24 h).

On to `C[C@@H]1CN(c2ccc(C(=O)Nc3ccc(Cl)c(-c4ncc(C5CCCCC5)[nH]4)c3)c(Cl)c2)C[C@H](C)N1C` [Example 184, N-(3-(5-cyclohexyl-1H-imidazol-2-yl)-4-chlorophenyl)-2-chloro-4-((3S,5R)-3,4,5-trimethylpiperazin-1-yl)benzamide], for which the pIC50 in assay [1] (setting [4]) was 6.74; in assay [2] (setting [4]) it was 7.55; in assay [3] (Mus musculus, C3H 10T1/2, 24 h), 8.00.

Regarding `Cc1cc(N2C[C@@H](C)N(C)[C@@H](C)C2)ccc1C(=O)Nc1ccc(Cl)c(-c2ncc(C3CCCCC3)[nH]2)c1` [Example 185, N-(3-(5-cyclohexyl-1H-imidazol-2-yl)-4-chlorophenyl)-2-methyl-4-((3S,5R)-3,4,5-trimethylpiperazin-1-yl)benzamide], the pIC50 in assay [1] (setting [4]) is 6.77; in assay [2] (setting [4]), 8.21; in assay [3] (Mus musculus, C3H 10T1/2, 24 h), 7.77.

Take `CC(C)c1cnc(-c2cc(NC(=O)c3ccc(N4C[C@@H](C)N(C)[C@@H](C)C4)cc3Cl)ccc2Cl)[nH]1` [Example 189, N-(3-(5-isopropyl-1H-imidazol-2-yl)-4-chlorophenyl)-2-chloro-4-((3S,5R)-3,4,5-trimethylpiperazin-1-yl)benzamide Dihydrochloride]: the negative logarithm of the IC50 (pIC50) was 7.52 in assay [1] (setting [4]); 8.28 in assay [2] (setting [4]); 9.09 in assay [3] (Mus musculus, C3H 10T1/2, 24 h).

For `C[C@@H]1CN(c2ccc(C(=O)Nc3ccc(Cl)c(-c4nc5cccnc5[nH]4)c3)c(Cl)c2)C[C@H](C)N1C` [Example 195, N-(3-(3H-imidazo[4,5-b]pyridin-2-yl)-4-chlorophenyl)-2-chloro-4-((3S,5R)-3,4,5-trimethylpiperazin-1-yl)benzamide], the pIC50 is 6.59 in assay [1] (setting [4]); 8.09 in assay [2] (setting [4]); 8.05 in assay [3] (Mus musculus, C3H 10T1/2, 24 h).

As to `C[C@@H]1CN(c2ccc(C(=O)Nc3ccc(Cl)c(-c4nc5ccncc5[nH]4)c3)c(Cl)c2)C[C@H](C)N1C` [Example 196, N-(3-(3H-imidazo[4,5-c]pyridin-2-yl)-4-chlorophenyl)-2-chloro-4-((3S,5R)-3,4,5-trimethylpiperazin-1-yl)benzamide], the pIC50 was 6.80 in assay [1] (setting [4]); 7.27 in assay [2] (setting [4]); 8.24 in assay [3] (Mus musculus, C3H 10T1/2, 24 h).

Regarding `Cc1cc(N2C[C@@H](C)N(C)[C@@H](C)C2)ccc1C(=O)Nc1ccc(Cl)c(-c2nc3ccncc3[nH]2)c1` [Example 197, N-(3-(3H-imidazo[4,5-c]pyridin-2-yl)-4-chlorophenyl)-2-methyl-4-((3S,5R)-3,4,5-trimethylpiperazin-1-yl)benzamide], the pIC50 in assay [1] (setting [4]) is 6.51; in assay [2] (setting [4]), 6.94; in assay [3] (Mus musculus, C3H 10T1/2, 24 h) it was 8.02.

As to `Cc1cc(N2C[C@@H](C)N(C)[C@@H](C)C2)ccc1C(=O)Nc1ccc(Cl)c(-c2nc3cscc3[nH]2)c1` [Example 198], the pIC50 in assay [1] was 7.59; in assay [2], 9.52; in assay [3] (24 hours), 9.54.

Turning to `C[C@@H]1CN(c2ccc(C(=O)Nc3ccc(Cl)c(-c4nc5cscc5[nH]4)c3)c(Cl)c2)C[C@H](C)N1C` [Example 199, N-(3-(1H-thieno[3,4-d]imidazol-2-yl)-4-chlorophenyl)-2-chloro-4-((3S,5R)-3,4,5-trimethylpiperazin-1-yl)benzamide], the pIC50 in assay [1] (setting [4]) is 7.96; in assay [2] (setting [4]), 9.72; in assay [3] (Mus musculus, C3H 10T1/2, 24 h), 9.57.

As to `C[C@@H]1CN(c2ccc(C(=O)Nc3ccc(Cl)c(-c4cnc5ccccc5n4)c3)c(Cl)c2)C[C@H](C)N1C` [Example 204, N-(3-(quinoxalin-2-yl)-4-chlorophenyl)-2-chloro-4-((3S,5R)-3,4,5-trimethylpiperazin-1-yl)benzamide], the negative-log IC50 (pIC50) is 6.70 in assay [1] (setting [4]); 7.31 in assay [2] (setting [4]); 8.02 in assay [3] (Mus musculus, C3H 10T1/2, 24 h).

With `C[C@@H]1CN(c2ccc(C(=O)Nc3ccc(Cl)c(-c4cn5ccsc5n4)c3)c(Cl)c2)C[C@H](C)N1C` [Example 205, N-(3-(imidazo[2,1-b]thiazol-6-yl)-4-chlorophenyl)-2-chloro-4-((3S,5R)-3,4,5-trimethylpiperazin-1-yl)benzamide], the pIC50 was 6.60 in assay [1] (setting [4]); 7.03 in assay [2] (setting [4]); 7.54 in assay [3] (Mus musculus, C3H 10T1/2, 24 h).

With `Cc1cc(N2C[C@@H](C)N(C)[C@@H](C)C2)ccc1C(=O)Nc1ccc(Cl)c(-c2nc3ccccc3o2)c1` [Example 206, N-(3-(benzo[d]oxazol-2-yl)-4-chlorophenyl)-2-methyl-4-((3S,5R)-3,4,5-trimethylpiperazin-1-yl)benzamide], the pIC50 is 6.61 in assay [1] (setting [4]); 7.34 in assay [2] (setting [4]); 7.57 in assay [3] (Mus musculus, C3H 10T1/2, 24 h).

With `C[C@@H]1CN(c2ccc(C(=O)Nc3ccc(Cl)c(-c4nc5ccccc5s4)c3)c(Cl)c2)C[C@H](C)N1C` [Example 207, N-(3-(benzo[d]thiazol-2-yl)-4-chlorophenyl)-2-chloro-4-((3S,5R)-3,4,5-trimethylpiperazin-1-yl)benzamide], the pIC50 in assay [1] (setting [4]) was 6.80; in assay [2] (setting [4]), 7.51; in assay [3] (Mus musculus, C3H 10T1/2, 24 h) it was 8.07.

`C[C@@H]1CN(c2ccc(C(=O)Nc3ccc(Cl)c(-c4ccccn4)c3)c(Cl)c2)C[C@H](C)N1C` [Example 208, N-(3-(pyridin-2-yl)-4-chlorophenyl)-2-chloro-4-((3S,5R)-3,4,5-trimethylpiperazin-1-yl)benzamide]: the negative logarithm of the IC50 (pIC50) was 7.28 in assay [1] (setting [4]); 8.89 in assay [2] (setting [4]); 8.43 in assay [3] (Mus musculus, C3H 10T1/2, 24 h).

Consider `C[C@@H]1CN(c2ccc(C(=O)Nc3ccc(Cl)c(-c4ncccn4)c3)c(Cl)c2)C[C@H](C)N1C` [Example 209, N-(3-(pyrimidin-2-yl)-4-chlorophenyl)-2-chloro-4-((3S,5R)-3,4,5-trimethylpiperazin-1-yl)benzamide], for which the pIC50 in assay [1] (setting [4]) was 5.74; in assay [2] (setting [4]) it was under 5.00; in assay [3] (Mus musculus, C3H 10T1/2, 24 h), under 5.00.

Consider `CS(=O)(=O)c1ccc(C(=O)Nc2ccc(Cl)c(-c3ccccn3)c2)c(Cl)c1` [GDC-0449, reference compound], for which the pIC50 is 6.97 in assay [1] (setting [4]); 7.42 in assay [2] (setting [4]); 7.37 in assay [3] (Mus musculus, C3H 10T1/2, 24 h).

Take “N-(3-(1H-benzo[d]imidazol-2-yl)-4-chlorophenyl)-2-cyano-4-((3S,5R)-3,4,5-trimethylpiperazin-1-yl)benzamide Dihydrochloride [Example 134]”: the pIC50 in assay [1], in assay [2] and in assay [3] (24 hours) was under 5.00 each time.
